Drawing on PubChem BioAssay (NCI), this text covers GI50 and TGI for six compounds.

“And” between values parts separate entries of the source, which are not always exact repeats. Equal entries are not always repeated.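 Five compound concentrations were applied to cells in 96-well plates for 48 hours; endpoints were derived by simple linear interpolation of the resulting dose-response curve. Abbreviation: GI50, concentration required for 50% inhibition of growth. Definition used: TGI = concentration required for complete inhibition of growth.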

Some test systems named below: 786-0 renal; BT-549 breast; EKVX NSCLC; HCT-116 colon; K-562 leukemia; LOX IMVI melanoma; OVCAR-8 ovarian; SF-268 CNS; SK-MEL-2 melanoma; SNB-75 CNS.
Holding throughout (experiment): NCI anticancer screen, dose series, 48 h

As for `COc1cc(C2c3cc4c(cc3[C@@H](Nc3ccc([N+](=O)[O-])cc3)C3COC(=O)[C@H]23)OCO4)cc(OC)c1O` (stereo not given in full), the GI50 in the test with 786-0 renal is 0.377 µM; in the test with LOX IMVI melanoma, 0.367 µM; in the test on OVCAR-8 ovarian it was 0.981 µM; in the test on SF-268 CNS, 0.914 µM; with SNB-75 CNS, 0.333 µM. Besides, the TGI in the test with 786-0 renal came out at 3.35 µM; with BT-549 breast it was 6.39 µM; with EKVX NSCLC, 17.2 µM; in the test with HCT-116 colon, 14.2 µM; with K-562 leukemia, 39.4 µM; in the test with LOX IMVI melanoma, 6.67 µM. Further, the TGI is 11 µM in the test with OVCAR-8 ovarian; 39.5 µM in the test with SF-268 CNS; 10.7 µM with SK-MEL-2 melanoma; 0.836 µM and 7.83 µM in the test with SNB-75 CNS.

With `COc1c(B(O)O)cccc1-c1nc2ccc3[nH]ncc3c2c2c1CCCC2`, the GI50 was 1.2 µM with 786-0 renal; 0.122 µM in the test with BT-549 breast; 2.65 µM with EKVX NSCLC; 0.473 µM in the test with HCT-116 colon; 3.4 µM with K-562 leukemia; 1.38 µM in the test on LOX IMVI melanoma. Besides, the GI50 was 2.39 µM with OVCAR-8 ovarian, 1.95 µM in the test on SF-268 CNS, 3.4 µM in the test on SK-MEL-2 melanoma and 0.0307 µM in the test on SNB-75 CNS. Moreover, the TGI with 786-0 renal is 11.9 µM; in the test with BT-549 breast, 2.56 µM; in the test on EKVX NSCLC, 15.9 µM; with HCT-116 colon it was above 96.7 µM; with K-562 leukemia, above 100 µM; in the test on LOX IMVI melanoma, 6.28 µM. For the same compound, the TGI with OVCAR-8 ovarian is above 38.8 µM; with SF-268 CNS, 12.5 µM; in the test on SK-MEL-2 melanoma, 8.78 µM; in the test with SNB-75 CNS it was 0.382 µM.

Turning to `COC(=O)c1c2c(c(C)[n+]([O-])c1C)C(=O)C(NCc1ccc(F)cc1)=CC2=O`, the GI50 is 2.85 µM with 786-0 renal; 1.73 µM in the test with BT-549 breast; 1.66 µM in the test on EKVX NSCLC; 0.957 µM in the test with HCT-116 colon; 2.43 µM in the test with K-562 leukemia; 1.94 µM in the test on LOX IMVI melanoma. In addition, the GI50 in the test with OVCAR-8 ovarian is 1.59 µM; in the test with SF-268 CNS, 2.51 µM; with SK-MEL-2 melanoma, 1.75 µM; in the test with SNB-75 CNS it was 2.23 µM. The TGI is 30.1 µM in the test with 786-0 renal; 3.78 µM in the test on BT-549 breast; 4.14 µM in the test on EKVX NSCLC; 6.28 µM with HCT-116 colon; above 100 µM with K-562 leukemia; 6.32 µM in the test on LOX IMVI melanoma. Further, the TGI in the test on OVCAR-8 ovarian was determined as 7.78 µM; in the test on SF-268 CNS, 9.08 µM; in the test on SK-MEL-2 melanoma it was 4.03 µM; in the test with SNB-75 CNS, 5.96 µM.

Regarding `O=C(NNc1ccccc1)c1ccc(Cl)c(Cl)c1`, the TGI is above 100 µM in the test with 786-0 renal; above 66.8 µM in the test on BT-549 breast; 99.4 µM with EKVX NSCLC; above 100 µM with HCT-116 colon; above 100 µM with K-562 leukemia; above 100 µM in the test on LOX IMVI melanoma. For the same compound, the TGI in the test with OVCAR-8 ovarian was above 100 µM; in the test on SF-268 CNS, above 100 µM; in the test with SK-MEL-2 melanoma, 36.2 µM; in the test on SNB-75 CNS, above 67.8 µM.

As for `O=C(CSC(c1ccccc1)c1ccccc1)N/N=C/c1ccccc1Cl`, the GI50 with 786-0 renal was 19.8 µM; in the test with BT-549 breast it was 2.75 µM; with EKVX NSCLC, 2.75 µM; in the test with HCT-116 colon, 14 µM; in the test on K-562 leukemia it was 10.2 µM; in the test on LOX IMVI melanoma, 31.1 µM. For the same compound, the GI50 in the test on OVCAR-8 ovarian was 17.9 µM; with SF-268 CNS, 25.5 µM; in the test on SK-MEL-2 melanoma, above 62.5 µM; in the test with SNB-75 CNS it was 7.6 µM. For the same compound, the TGI in the test on 786-0 renal was 65.5 µM; in the test with BT-549 breast it was 17 µM; in the test with EKVX NSCLC, above 34.1 µM; in the test with HCT-116 colon, above 54.6 µM; in the test with K-562 leukemia it was 46.8 µM; with LOX IMVI melanoma it was above 100 µM. The TGI in the test on OVCAR-8 ovarian was above 79.4 µM; in the test on SF-268 CNS, 78.6 µM; in the test with SK-MEL-2 melanoma it was above 100 µM; in the test with SNB-75 CNS, 30 µM.

Consider `CC1=NN(c2cccc(Cl)c2)C(=O)/C1=C\C=C\c1ccccc1`, for which the GI50 was 2.16 µM in the test on 786-0 renal; 1.64 µM in the test on BT-549 breast; 3.04 µM in the test on EKVX NSCLC; 1.56 µM in the test with HCT-116 colon; 2.88 µM with K-562 leukemia; 1.48 µM with LOX IMVI melanoma. Further, the GI50 with OVCAR-8 ovarian is 2.63 µM; in the test with SF-268 CNS, 2.36 µM; with SK-MEL-2 melanoma, 3.85 µM; in the test with SNB-75 CNS, 7.12 µM. The TGI is 4.65 µM in the test on 786-0 renal; 3.17 µM in the test on BT-549 breast; above 100 µM with EKVX NSCLC; 3.09 µM in the test with HCT-116 colon; above 100 µM in the test on K-562 leukemia; 3.15 µM in the test on LOX IMVI melanoma. The TGI with OVCAR-8 ovarian is 9.44 µM; in the test with SF-268 CNS, 6.91 µM; with SK-MEL-2 melanoma, 16.7 µM; in the test on SNB-75 CNS it was above 100 µM.
